Assay [1] deals with HeLa, human cervical tumour cells. Kind of assay: Proliferation assay, HeLa (crystal violet). The note with it: 4 days, read-out: Inhibition of HeLa cell proliferation IC50. It counts as cell-based. The method, then: (§1) Cultivated tumour cells (HeLa, human cervical tumour cells, ATCC CCL-2; NCI-H460, human non-small cell lung carcinoma cells, ATCC HTB-177; A2780, human ovarian carcinoma cells, ECACC #93112519; DU 145, hormone-independent human prostate carcinoma cells, ATCC HTB-81; HeLa-MaTu-ADR, multidrug-resistant human cervical carcinoma cells, EPO-GmbH Berlin; Caco-2, human colorectal carcinoma cells, ATCC HTB-37; B16F10, mouse melanoma cells, ATCC CRL-6475) were plated at a density of 5,000 cells/well (DU145, HeLa-MaTu-ADR), 3,000 cells/well (NCI-H460, HeLa), 2,500 cells/well (A2780), 1,500 cells/well (Caco-2), or 1,000 cells/well (B16F10) in a 96-well multititer plate in 200 μL of their respective growth medium supplemented 10% fetal calf serum. After 24 hours, the cells of one plate (zero-point plate) were stained with crystal violet (see below), while the medium of the other plates was replaced by fresh culture medium (200 μl), to which the test substances were added in various concentrations (0 μM, as well as in the range of 0.001-10 μM; the final concentration of the solvent dimethyl sulfoxide was 0.5%). The cells were incubated for 4 days in the presence of test substances. Cell proliferation was determined by staining the cells with crystal violet: the cells were fixed by adding 20 μl/measuring point of an 11% glutaric aldehyde solution for 15 minutes at room temperature. After three washing cycles of the fixed cells with water, the plates were dried at room temperature. The cells were stained by adding 100 μl/measuring point of a 0.1% crystal violet solution (pH 3.0). After three washing cycles of the stained cells with water, the plates were dried at room temperature. The dye was dissolved by adding 100 μl/measuring point of a 10% acetic acid solution. The extinction was determined by photometry at a wavelength of 595 nm. The change of cell number, in percent, was calculated by normalization of the measured values to the extinction values of the zero-point plate (=0%) and the extinction of the untreated (0 μm) cells (=100%). The IC50 values (inhibitory concentration at 50% of maximal effect) were determined by means of a 4 parameter fit. Non-adherent MOLM-13 human acute myeloid leukemia cells (DSMZ ACC 554) were seeded at a density of 5,000 cells/well in a 96-well multititer plate in 100 μL of growth medium supplemented 10% fetal calf serum. After 24 hours, cell viability of one plate (zero-point plate) was determined with the Cell Titre-Glo Luminescent Cell Viability Assay (Promega), while 50 μL of test compound containing medium was added to the wells of the other plates (final concentrations in the range of 0.001-10 μM and DMSO controls; the final concentration of the solvent dimethyl sulfoxide was 0.5%). Cell viability was assessed after 72-hour exposure with the Cell Titre-Glo Luminescent Cell Viability Assay (Promega).

In assay [2] the test system is NCI-H460, human non-small cell lung carcinoma cells. Kind of assay: Proliferation assay, NCI-H460 (crystal violet). It counts as cell-based. The settings on record: NCI-H460, 4 days; read-out: Inhibition of NCI-H460 cell proliferation IC50. The method, then: as §1
The next assay addresses T1, CDK9/CycT1 (Homo sapiens, UniProt P50750).
T1 construct: Recombinant full-length His-tagged human CDK9 and CycT1; His; purchased Invitrogen PV4131; host or cells: insect cells
Kind of assay: CDK9/CycT1 high ATP kinase assay (TR-FRET, 2 mM ATP). The settings on record: Method 1b. It counts as biochemical. The procedure: 1b. CDK9/CyeT1 High ATP Kinase Assay
CDK9/CycT1-inhibitory activity of compounds of the present invention at a high ATP concentration after preincubation of enzyme and test compounds was quantified employing the CDK9/CycT1 TR-FRET assay as described in the following paragraphs.
Recombinant full-length His-tagged human CDK9 and CycT1, expressed in insect cells and purified by Ni-NTA affinity chromatography, were purchase from Invitrogen (Cat. No PV4131). As substrate for the kinase reaction biotinylated peptide biotin-Ttds-[…] (C-terminus in amid form) was used which can be purchased e.g. form the company JERINI peptide technologies (Berlin, Germany). For the assay 50 nl of a 100 fold concentrated solution of the test compound in DMSO was pipetted into a black low volume 384 well microtiter plate (Greiner Bio-One, Frickenhausen, Germany), 2 μl of a solution of CDK9/CycT1 in aqueous assay buffer [50 mM Tris/HCl pH 8.0, 10 mM MgCl2, 1.0 mM dithiothreitol, 0.1 mM sodium ortho-vanadate, 0.01% (v/v) Nonidet-P40 (Sigma)] were added and the mixture was incubated for 15 min at 22° C. to allow pre-binding of the test compounds to the enzyme before the start of the kinase reaction. Then the kinase reaction was started by the addition of 3 μl of a solution of adenosine-tri-phosphate (ATP, 3.3 mM=>final conc. in the 5 μl assay volume is 2 mM) and substrate (1.67 μM=>final conc. in the 5 μl assay volume is 1 μM) in assay buffer and the resulting mixture was incubated for a reaction time of 25 min at 22° C.
The resulting mixture was incubated 1 h at 22° C. to allow the formation of complex between the phosphorylated biotinylated peptide and the detection reagents. Subsequently the amount of phosphorylated substrate was evaluated by measurement of the resonance energy transfer from the Eu-chelate to the streptavidine-XL. Therefore, the fluorescence emissions at 620 nm and 665 nm after excitation at 350 nm was measured in a HTRF reader, e.g. a Rubystar (BMG Labtechnologies, Offenburg, Germany) or a Viewlux (Perkin-Elmer). The ratio of the emissions at 665 nm and at 622 nm was taken as the measure for the amount of phosphorylated substrate.
Background: Time-resolved FRET reads energy transfer from a long-lived donor to a nearby acceptor.

The subject of assay [3] is DU 145, hormone-independent human prostate carcinoma cells. Kind of assay: Proliferation assay, DU145 (crystal violet). It counts as cell-based. The note with it: DU145, 4 days, read-out: Inhibition of DU145 cell proliferation IC50. The procedure: as §1

Read-outs that look alike come from different tables or passages of the source.

IC50 data for six molecules are collected here from patent US9650340B2, “5-fluoro-N-(pyridin-2-yl)pyridin-2-amine derivatives containing a sulfoximine group” (BAYER PHARMA AKTIENGESELLSCHAFT, priority 2012, dated 2017).

T1 sequence (P50750 whole entry): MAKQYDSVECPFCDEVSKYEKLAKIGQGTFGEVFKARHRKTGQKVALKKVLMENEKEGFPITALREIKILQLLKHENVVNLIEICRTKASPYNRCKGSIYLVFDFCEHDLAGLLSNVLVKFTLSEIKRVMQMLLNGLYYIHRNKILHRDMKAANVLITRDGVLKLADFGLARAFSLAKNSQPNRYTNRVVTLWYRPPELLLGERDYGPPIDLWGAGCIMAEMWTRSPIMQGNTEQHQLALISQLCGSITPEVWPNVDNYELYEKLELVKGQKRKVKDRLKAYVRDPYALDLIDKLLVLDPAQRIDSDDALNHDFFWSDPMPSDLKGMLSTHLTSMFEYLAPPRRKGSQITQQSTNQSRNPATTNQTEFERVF
T1 sequence (O60563 whole entry partner): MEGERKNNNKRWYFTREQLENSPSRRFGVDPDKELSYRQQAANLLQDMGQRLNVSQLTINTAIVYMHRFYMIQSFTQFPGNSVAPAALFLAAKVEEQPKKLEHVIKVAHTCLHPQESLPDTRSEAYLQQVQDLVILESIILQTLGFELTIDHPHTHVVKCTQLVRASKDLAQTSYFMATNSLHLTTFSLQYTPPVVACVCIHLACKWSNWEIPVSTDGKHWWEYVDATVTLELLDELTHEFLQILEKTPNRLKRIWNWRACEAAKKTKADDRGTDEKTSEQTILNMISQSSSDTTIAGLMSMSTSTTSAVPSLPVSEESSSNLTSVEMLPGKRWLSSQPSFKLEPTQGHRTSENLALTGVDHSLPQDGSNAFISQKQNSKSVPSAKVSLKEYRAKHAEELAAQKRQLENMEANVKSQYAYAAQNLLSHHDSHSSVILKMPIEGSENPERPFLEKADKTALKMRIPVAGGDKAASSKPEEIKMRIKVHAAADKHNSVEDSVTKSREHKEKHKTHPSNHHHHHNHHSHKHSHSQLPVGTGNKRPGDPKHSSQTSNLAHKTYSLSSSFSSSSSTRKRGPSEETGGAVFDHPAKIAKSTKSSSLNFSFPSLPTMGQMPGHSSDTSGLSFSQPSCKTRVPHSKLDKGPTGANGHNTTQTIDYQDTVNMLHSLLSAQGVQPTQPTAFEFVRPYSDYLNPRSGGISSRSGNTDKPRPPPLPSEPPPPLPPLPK

`COc1cc(F)ccc1-c1cc(Nc2cc(CS(C)(=N)=O)cc(C)n2)ncc1F` (single isomer, unassigned; (+)) [Example 32, (+)-5-Fluoro-4-(4-fluoro-2-methoxyphenyl)-N-{6-methyl-4-[(S-methylsulfonimidoyl)methyl]pyridin-2-yl}pyridin-2-amine]: the IC50 in assay [1] (Homo sapiens, 96 h) is 31 nM; in assay [2], 100 nM; against CDK9/CycT1, 2 nM; in assay [3] (Homo sapiens, DU-145, 96 h), 38 nM.
On to `COc1cc(F)ccc1-c1cc(Nc2cc(CS(C)(=N)=O)cc(F)n2)ncc1F` (single isomer, unassigned; (-)) [Example 20, (−)-5-Fluoro-4-(4-fluoro-2-methoxyphenyl)-N-{6-fluoro-4-[(S-methylsulfonimidoyl)methyl]pyridin-2-yl}pyridin-2-amine], for which the IC50 turned out to be 30 nM in assay [1] (Homo sapiens, 96 h); 100 nM in assay [2]; 1 nM at CDK9/CycT1; 58 nM in assay [3].
Turning to `COc1cc(F)ccc1-c1cc(Nc2cc(CS(C)(=N)=O)cc(C(F)(F)F)n2)ncc1F` (single isomer, unassigned; (-)) [Example 23, (−)-5-Fluoro-4-(4-fluoro-2-methoxyphenyl)-N-{4-[(S-methylsulfonimidoyl)methyl]-6-(trifluoromethyl)pyridin-2-yl}pyridin-2-amine], the IC50 in assay [1] was determined as 30 nM; in assay [2], 35 nM; at CDK9/CycT1, 2 nM; in assay [3], 34 nM.
As for `COc1cc(F)ccc1-c1cc(Nc2cc(CS(C)(=O)=NC(=O)C(F)(F)F)cc(C(F)(F)F)n2)ncc1F` (single isomer, unassigned; (-)) [Example 25, (−)-2,2,2-Trifluoro-N-[{[2-{[5-fluoro-4-(4-fluoro-2-methoxyphenyl)pyridin-2-yl]amino}-6-(trifluoromethyl)-pyridin-4-yl]methyl}(methyl)oxido-λ^6-sulfanylidene]acetamide], the IC50 in assay [1] was 35 nM; in assay [2] it was 36 nM; against CDK9/CycT1 it was 13 nM; in assay [3], 37 nM.
With `CCOc1cc(F)ccc1-c1cc(Nc2cc(CS(C)(=N)=O)cc(F)n2)ncc1F` (single isomer, unassigned; (-)) [Example 29, (−)-4-(2-Ethoxy-4-fluorophenyl)-5-fluoro-N-{6-fluoro-4-[(S-methylsulfonimidoyl)methyl]pyridin-2-yl}pyridin-2-amine], the IC50 in assay [1] worked out at 110 nM; in assay [2] it was 150 nM; against CDK9/CycT1 it was 4 nM; in assay [3], 110 nM.
For the molecule `COc1cc(F)ccc1-c1cc(Nc2cc(CS(C)(=N)=O)cc(C)n2)ncc1F` (single isomer, unassigned; (-)) [Example 33, (−)-5-Fluoro-4-(4-fluoro-2-methoxyphenyl)-N-{6-methyl-4-[(S-methylsulfonimidoyl)methyl]pyridin-2-yl}pyridin-2-amine], the IC50 in assay [1] is 19 nM; in assay [2] it was 30 nM; on CDK9/CycT1 it was 1 nM; in assay [3], 31 nM.
